Measurements taken from patent US6080731A, “Dinucleoside-5', 5'-pyrophosphates administered to treat HIV” (Biosearch Italia, S.p.A., priority 1994, dated 2000).

What was measured:
[1] = 50% cytotoxic concentration in MT-4 cells; type: cell-based; conditions: human
Description: (§1) To confirm the anti-HIV activity of some dinucleoside-5',5'-P^1,P^2-pyrophosphates representative of this invention, invitro tests have been carried out on a HTLV-1 transformed cell line, MT-4, which is highly susceptible to and permissive for HIV infection. The inhibition of the HIV-induced cytopathic effect was used as the end point. The procedure of this test is essentially that described by R. Pauwels et al. "Rapid and automated tetrazolium-based calorimetric assay for the detection of anti-HIV compounds". Journal of Virological Methods, 20, (1988), 309-321.
(§2) Thymine-3'-azido-2',3'-dideoxy-D-riboside (AZT) was taken as control compound.

[2] = Concentration of di-AZT-5',5'-P^1,P^2 -pyrophosphate and its metabolites in loaded human red blood cells; type: in vitro ADME; conditions: 37° C., autologous plasma; for Concentration into human red blood cells: 10% hematocrit, erythrocytes loaded with di-AZT-pyrophosphate
Protocol: (§3) A two step procedure was used consisting of a first dialysis of the washed and packed erythrocytes (80% hematocrit) against 70 volumes of hemolysing buffer (5 mM Na2 HPO4 supplemented with 4 mM MgCl2, pH 7.2, 26 mOsm) for 35 minutes at 4° C. under gentle rotation. This step was followed by addition of 10-15 mM di-AZT-5',5'-P^1,P^2 -pyrcphosphate inside the dialysis bag and further dialysis for 15 minutes under the same conditions. Erythrocytes were then resealed by dialysing them for 40 minutes at 4° C. against phosphate-saline buffer, pH 7.4, supplemented with 10 mM glucose and adenosine, 310 mOsm. The loaded erythrocytes were then extensively washed with ice-cold aqueous NaCl (0.9% w/w) and incubated at 37° C. in autologous plasma at 10% hematocrit.
(§4) The concentration of the dinucleoside pyrophosphate and its metabolites in the plasma and red blood cells was determined at successive time intervals by using the following method.
At various times, 1 ml aliquots of the incubation mixture were withdrawn. After the separation of the erythrocytes from plasma, the two fractions were separately extracted.
100 Microliters of packed red blood cells (RBC) were added to 100 microliters of water, then 68 microliters of 3.7 M perchloric acid (PCA) were added under vigorous shaking. The sample was centrifuged and 140 microliters of the supernatant were neutralized with 30 microliters of 3 M potassium carbonate. The sample was then centrifuged to remove the formed precipitate.
(§5) 150 Microliters of the plasma fractions were treated with 50 microliters of 3.7 M PCA and 120 microliters of the supernatant were neutralized with 27 microliters of 3 M potassium carbonate and centrifuged. […] The solvent program was a linear gradient starting at 100% of buffer A (0.1 M KH2 PO4 with 5 mM tert-butylammonium hydroxide (TBA), pH 4.9) and increasing up to 100% buffer B (0.1 M KH2 PO4 with 5 mM TBA, in 40% (v/v) methanol in water, pH 4.9) in 30 minutes; 100% buffer B was maintained up to 50 minutes. The flow rate was 0.4 ml/min and the eluted compounds were monitored with a spectrophotometric detector set at 265 nm.

HIV = test: Anti-HIV in vitro activity: inhibition of the HIV-induced cytopathic effect in MT-4 cells; type: cell-based; conditions: Human immunodeficiency virus 1, MT4, read-out: 50% effective concentration (IC50)
Description: as §1, §2

[3] = Concentration of di-AZT-5',5'-P^1,P^2 -pyrophosphate and its metabolites in human plasma incubated with loaded erythrocytes; type: in vitro ADME; conditions: 37° C., autologous plasma, 10% hematocrit, released from loaded erythrocytes
Protocol: as §3, §4
At various times, 1 ml aliquots of the incubation mixture were withdrawn. After the separation of the erythrocytes from plasma, the two fractions were separately extracted. […]
as §5

[4] = De-phosphorylation rate of encapsulated pro-drug; type: in vitro ADME; conditions: pro-drug for encapsulation into erythrocytes

Row | Structure (SMILES) | CC50 [1] [nM] | Concentration into human red blood cells ([2]; 0 h) [µM] | Concentration into human red blood cells ([2]; 2 h) [µM] | Concentration into human red blood cells ([2]; 6 h) [µM] | Concentration into human red blood cells ([2]; 24 h) [µM] | Release from the erythrocytes ([2]; human red blood cells) | IC50 (HIV) [nM] | Concentration in human plasma ([3]; 0 h) [µM] | Concentration in human plasma ([3]; 2 h) [µM] | Concentration in human plasma ([3]; 6 h) [µM] | Concentration in human plasma ([3]; 24 h) [µM] | De-phosphorylation rate with respect to the respective monophosphate [4]
1 | Cc1cn([C@H]2C[C@H](N=[N+]=[N-])[C@@H](COP(=O)(O)OP(=O)(O)OC[C@H]3O[C@@H](n4cc(C)c(=O)[nH]c4=O)C[C@@H]3N=[N+]=[N-])O2)c(=O)[nH]c1=O [Compound 1, di-(thymine-3'-azido-2',3'-dideoxy-D-riboside)-5',5'-P^1,P^2-pyrophosphate] | > 100000 | 3900 | 4100 | 2900 | 1800 | released from the erythrocytes at a very low rate | 31 | 4.49 | 3.75 | 5.27 | 5.34 | –
2 | Cc1cn([C@H]2C[C@H](N=[N+]=[N-])[C@@H](CO)O2)c(=O)[nH]c1=O [AZT, thymine-3'-azido-2',3'-dideoxy-D-riboside, reference compound] | 70000 | – | – | 600 | 100 | – | 28 | 4.6 | 14.42 | 62.43 | 355.78 | –
3 | Cc1cn([C@H]2C[C@H](N=[N+]=[N-])[C@@H](COP(=O)(O)O)O2)c(=O)[nH]c1=O [AZT-monophosphate, thymine-3'-azido-2',3'-dideoxy-D-riboside-5'-monophosphate] | – | 40 | 90 | 650 | 930 | – | – | 21.94 | 28.21 | 24.68 | 67.11 | –
4 | O=c1[nH]c(=O)n([C@H]2C[C@H](O)[C@@H](COP(=O)(O)OP(=O)(O)OC[C@H]3O[C@@H](n4cc(F)c(=O)[nH]c4=O)C[C@@H]3O)O2)cc1F [Example 6, di-(5-fluorouracil-2'-deoxy-D-riboside)-5',5'-P^1,P^2-pyrophosphate] | – | – | – | – | – | – | – | – | – | – | – | lower de-phosphorylation rate with respect to the respective monophosphate
